Laboratory results taken from paper PMC7550323 (Clinical Pharmacokinetics, 2020).
Values joined by “and” are separate entries in the source; they are usually repeats but may differ in a detail not shown here. Equal entries are not always repeated. Where two headings read alike, the source gives them in different places.

What was measured:
[1] = test system: FLT3 receptors expressing the F691L gatekeeper mutation; conditions: cited from earlier work
[2] = CYP3A4 drug-drug interaction study in healthy subjects; type: in vivo, human; conditions: for AUCinf, GLSM ratio / AUClast, GLSM ratio / Cmax, GLSM ratio: 100 indicates no change
[3] = type: in vivo, human
[4] = test system: FLT3; conditions: cited from earlier work
[5] = Effect of food study in healthy subjects; type: in vivo, human; conditions: single 40 mg dose
[6] = test system: FLT3; conditions: doses of ≥ 80 mg/day; cited from earlier work
[7] = test system: MV4-11 AML cells; conditions: mice xenografted with MV4-11 AML cells; cited from earlier work
[8] = type: in vivo, human; conditions: R/R AML; achievable at QD doses of 80 mg or greater
[9] = for AUC / Cmax / Tmax / half-life: human, plasma, oral; for AUC / Cmax / Tmax: single dose (Day-2)
[10] = test system: c-Kit; conditions: preclinical evaluations; cited from earlier work
[11] = Hepatic impairment study, single-dose gilteritinib pharmacokinetics; type: in vivo, human; conditions: for AUC480, GLSM, Unbound / AUCinf, GLSM, Unbound / Cmax, GLSM, Unbound: single 10 mg dose, fasted, N = 8
[12] = cited from earlier work
[13] = Population PK analysis; type: in vivo, human
[14] = fluconazole + gilteritinib/gilteritinib alone
[15] = itraconazole + gilteritinib/gilteritinib alone
[16] = rifampicin + gilteritinib/gilteritinib alone
[17] = metabolite profiling after 14C-gilteritinib
[18] = single oral dose of 14C-gilteritinib
[19] = multiple dosing QD (Day 15), 20 mg, n = 3
[20] = multiple dosing QD (Day 15), 40 mg, n = 2
[21] = multiple dosing QD (Day 15), 40 mg, n = 12
[22] = multiple dosing QD (Day 15), 80 mg, n = 3
[23] = multiple dosing QD (Day 15), 80 mg, n = 20
[24] = multiple dosing QD (Day 15), 120 mg, n = 3
[25] = multiple dosing QD (Day 15), 120 mg, n = 61
[26] = multiple dosing QD (Day 15), 200 mg, n = 2
[27] = multiple dosing QD (Day 15), 200 mg, n = 79
[28] = multiple dosing QD (Day 15), 300 mg, n = 3
[29] = multiple dosing QD (Day 15), 300 mg, n = 15

## CCc1nc(C(N)=O)c(Nc2ccc(N3CCC(N4CCN(C)CC4)CC3)c(OC)c2)nc1NC1CCOCC1 [gilteritinib, Gilteritinib]
[1]
  activity against FLT3 receptors expressing the F691L gatekeeper mutation: weak activity
[2]; coadministration of itraconazole (strong CYP3A4 inhibitor)
  increase in systemic exposure of gilteritinib: ~ 2.2 fold and 2.2 fold
[2]; coadministration with fluconazole
  increase in gilteritinib systemic exposure: ~ 1.43 fold
[2]; concomitant administration of rifampicin
  decrease in gilteritinib systemic exposure: ~ 70%
[2]; [14]
  AUCinf, GLSM ratio: 143.5%
  AUClast, GLSM ratio: 144.0%
  Cmax, GLSM ratio: 115.7%
[2]; [15]
  AUCinf, GLSM ratio: 221.4%
  AUClast, GLSM ratio: 213.5%
  Cmax, GLSM ratio: 119.8%
[2]; [16]
  AUCinf, GLSM ratio: 28.5%
  AUClast, GLSM ratio: 29.2%
  Cmax, GLSM ratio: 73.4%
[3]; after [14C]-gilteritinib 120 mg single dose at steady state
  average total blood-to-plasma ratios of total 14C-radioactivity: 0.8514–1.361
[3]; [17]
  radioactive peak in feces, accounting for: 11.7–23.8%
  radioactive peak in urine, accounting for: 6.3–15.8%
[3]; [18]
  total administered dose recovered in feces: 64.5%
  total dose recovered in urine: 16.4%
  total radioactive dose recovered: 80.9%
[4]
  inhibition of FLT3 receptors with ITD and D835 mutations: highly specific potent inhibition
[4]; preclinical evaluations
  selectivity for FLT3: highly selective for FLT3
[5]
  AUC72, GMR (fed/fasted): 91.0%
  AUCinf, GMR (fed/fasted): 93.8%
  AUClast, GMR (fed/fasted): 94.6%
  Cmax, GMR (fed/fasted): 74.0%
[6]
  maximum FLT3 inhibition: > 90%
[7]
  effect on tumor growth: inhibited tumor growth and induced tumor regression
[8]
  steady-state Ctrough at which composite complete response occurred more commonly: ≥ 100 ng/mL
[9]; 20 to 450 mg QD, R/R AML
  dose proportionality of pharmacokinetics: dose-proportional pharmacokinetics
[9]; QD dosing, visual inspection of median Ctrough
  time at which steady state is achieved, based on Ctrough: ≤ 15 days
[9]; 20 mg, AUC24, Mean (SD), n = 5
  AUC: 302 ng·h/mL
[9]; 20 mg, AUC24, Median (range), n = 5
  AUC: 262 ng·h/mL
[9]; 20 mg, Mean (SD), n = 5
  Cmax: 28.1 ng/mL
[9]; 20 mg, Median (range), n = 5
  Cmax: 23.7 ng/mL
  Tmax: 2 h
[9]; 20 mg, t½, Mean (SD), multiple dosing QD (Day 15), 20 mg, n = 3, calculated from Rac
  half-life: 62.1 h
[9]; 20 mg, t½, Median (range), multiple dosing QD (Day 15), 20 mg, n = 3, calculated from Rac
  half-life: 54.5 h
[9]; 40 mg, AUC24, Mean (SD), n = 3
  AUC: 360 ng·h/mL
[9]; 40 mg, AUC24, Median (range), n = 3
  AUC: 315 ng·h/mL
[9]; 40 mg, Mean (SD), n = 3
  Cmax: 25 ng/mL
[9]; 40 mg, Median (range), n = 3
  Cmax: 17 ng/mL
  Tmax: 5.98 h
[9]; 40 mg, t½, Mean (SD), multiple dosing QD (Day 15), 40 mg, n = 2, calculated from Rac
  half-life: 152 h
[9]; 40 mg, t½, Median (range), multiple dosing QD (Day 15), 40 mg, n = 2, calculated from Rac
  half-life: 152 h
[9]; 80 mg, AUC24, Mean (SD), n = 3
  AUC: 1220 ng·h/mL
[9]; 80 mg, AUC24, Median (range), n = 3
  AUC: 995 ng·h/mL
[9]; 80 mg, Mean (SD), n = 3
  Cmax: 75.3 ng/mL
[9]; 80 mg, Median (range), n = 3
  Cmax: 71.5 ng/mL
  Tmax: 4 h
[9]; 80 mg, t½, Mean (SD), multiple dosing QD (Day 15), 80 mg, n = 3, calculated from Rac
  half-life: 86.1 h
[9]; 80 mg, t½, Median (range), multiple dosing QD (Day 15), 80 mg, n = 3, calculated from Rac
  half-life: 91 h
[9]; 120 mg, AUC24, Mean (SD), n = 3
  AUC: 2480 ng·h/mL
[9]; 120 mg, AUC24, Median (range), n = 3
  AUC: 1390 ng·h/mL
[9]; 120 mg, Mean (SD), n = 3
  Cmax: 137 ng/mL
[9]; 120 mg, Median (range), n = 3
  Cmax: 85.7 ng/mL
  Tmax: 2.1 h
[9]; 120 mg, t½, Mean (SD), multiple dosing QD (Day 15), 120 mg, n = 3, calculated from Rac
  half-life: 45.9 h
[9]; 120 mg, t½, Median (range), multiple dosing QD (Day 15), 120 mg, n = 3, calculated from Rac
  half-life: 44.9 h
[9]; 200 mg, AUC24, Mean (SD), n = 3
  AUC: 3020 ng·h/mL
[9]; 200 mg, AUC24, Median (range), n = 3
  AUC: 2540 ng·h/mL
[9]; 200 mg, Mean (SD), n = 3
  Cmax: 168 ng/mL
[9]; 200 mg, Median (range), n = 3
  Cmax: 149 ng/mL
  Tmax: 5.2 h
[9]; 200 mg, t½, Mean (SD), multiple dosing QD (Day 15), 200 mg, n = 2, calculated from Rac
  half-life: 142 h
[9]; 200 mg, t½, Median (range), multiple dosing QD (Day 15), 200 mg, n = 2, calculated from Rac
  half-life: 142 h
[9]; 300 mg, AUC24, Mean (SD), n = 3
  AUC: 4160 ng·h/mL
[9]; 300 mg, AUC24, Median (range), n = 3
  AUC: 2450 ng·h/mL
[9]; 300 mg, Mean (SD), n = 3
  Cmax: 204 ng/mL
[9]; 300 mg, Median (range), n = 3
  Cmax: 137 ng/mL
  Tmax: 6.1 h
[9]; 300 mg, t½, Mean (SD), multiple dosing QD (Day 15), 300 mg, n = 3, calculated from Rac
  half-life: 142 h
[9]; 300 mg, t½, Median (range), multiple dosing QD (Day 15), 300 mg, n = 3, calculated from Rac
  half-life: 159 h
[9]; 450 mg, AUC24, Mean (SD), n = 2
  AUC: 3320 ng·h/mL
[9]; 450 mg, AUC24, Median (range), n = 2
  AUC: 3320 ng·h/mL
[9]; 450 mg, Mean (SD), n = 3
  Cmax: 208 ng/mL
[9]; 450 mg, Median (range), n = 3
  Cmax: 216 ng/mL
  Tmax: 5.8 h
[9]; estimated t1/2, across dose cohorts, multiple dosing
  half-life: 45 to 159 h
[9]; multiple dosing QD
  accumulation based on the accumulation index: up to ten-fold accumulation
[9]; [19]
  Rac (accumulation ratio), Mean (SD): 4.3 (1.069)
  Rac (accumulation ratio), Median (range): 3.8 (3.5–5.5)
[9]; multiple dosing QD (Day 15), 20 mg, n = 11
  Ctrough, Mean (SD): 43.5 (23.5) ng/mL
[9]; [20]
  Rac (accumulation ratio), Mean (SD): 9.6 (7.8)
  Rac (accumulation ratio), Median (range): 9.6 (4.2–15.1)
[9]; [21]
  Ctrough, Mean (SD): 72.9 (40.1) ng/mL
  Ctrough, Median (range): 66.6 (26.7–166) ng/mL
[9]; [22]
  Rac (accumulation ratio), Mean (SD): 5.7 (1.4)
  Rac (accumulation ratio), Median (range): 6.0 (4.1–6.97)
[9]; [23]
  Ctrough, Mean (SD): 165 (88.0) ng/mL
  Ctrough, Median (range): 110 (78.6–339) ng/mL
[9]; [24]
  Rac (accumulation ratio), Mean (SD): 3.3 (1.2)
  Rac (accumulation ratio), Median (range): 3.2 (2.2–4.4)
[9]; [25]
  Ctrough, Mean (SD): 367 (253) ng/mL
  Ctrough, Median (range): 292 (77.1–1173) ng/mL
[9]; [26]
  Rac (accumulation ratio), Mean (SD): 9.0 (3.7)
  Rac (accumulation ratio), Median (range): 9.0 (6.4–11.7)
[9]; [27]
  Ctrough, Mean (SD): 816 (557) ng/mL
  Ctrough, Median (range): 668 (90.5–2925) ng/mL
[9]; [28]
  Rac (accumulation ratio), Mean (SD): 9.1 (3.3)
  Rac (accumulation ratio), Median (range): 10.1 (5.4–11.7)
[9]; [29]
  Ctrough, Mean (SD): 1242 (723) ng/mL
  Ctrough, Median (range): 1085 (470–2391) ng/mL
[9]; multiple dosing QD (Day 15), 450 mg, n = 1
  Ctrough, Mean (SD): 1170 ng/mL
[10]
  activity against c-Kit: weak activity
[11]; mild hepatic impairment
  AUC480, GMR vs normal hepatic function, Total: 78.13%
  AUC480, GMR vs normal hepatic function, Unbound: 87.59%
  AUCinf, GMR vs normal hepatic function, Total: 78.88%
  AUCinf, GMR vs normal hepatic function, Unbound: 88.42%
  Cmax, GMR vs normal hepatic function, Total: 106.59%
  Cmax, GMR vs normal hepatic function, Unbound: 119.49%
  AUC480, GLSM, Unbound: 25.95 ng·h/mL
  AUCinf, GLSM, Unbound: 27.53 ng·h/mL
  Cmax, GLSM, Unbound: 0.5171 ng/mL
[11]; moderate hepatic impairment
  AUC480, GMR vs normal hepatic function, Total: 60.55%
  AUC480, GMR vs normal hepatic function, Unbound: 87.21%
  AUCinf, GMR vs normal hepatic function, Total: 61.43%
  AUCinf, GMR vs normal hepatic function, Unbound: 88.48%
  Cmax, GMR vs normal hepatic function, Total: 81.73%
  Cmax, GMR vs normal hepatic function, Unbound: 117.72%
  AUC480, GLSM, Unbound: 25.84 ng·h/mL
  AUCinf, GLSM, Unbound: 27.54 ng·h/mL
  Cmax, GLSM, Unbound: 0.5095 ng/mL
[11]; normal hepatic function
  AUC480, GLSM, Unbound: 29.62 ng·h/mL
  AUCinf, GLSM, Unbound: 31.13 ng·h/mL
  Cmax, GLSM, Unbound: 0.4328 ng/mL
[12]; R/R AML, QD single agent
  maximum tolerated dose: 300 mg/day
[12]; doses of ≥ 80 mg/day
  median overall survival duration: 31 weeks
  overall response rate: 52%
[13]; human, plasma, oral
  half-life: 113 h
[13]; in vivo
  volume of distribution: large volume of distribution
